The record followed here is ChEMBL document CHEMBL3352641, “Discovery of pyrrolo[1,2-b]pyridazine-3-carboxamides as Janus kinase (JAK) inhibitors” (Bioorg Med Chem Lett, 2014).

One data set deals with Blood. The data set can be described thus: Inhibition of IL2-induced IFN-gamma production in human whole blood incubated for 18 hrs by ELISA method. Format: functional, tissue-based.
Data set [1] addresses T1, Tyrosine-protein kinase JAK3 (Homo sapiens, UniProt P52333).
T1 sequence (P52333 whole entry): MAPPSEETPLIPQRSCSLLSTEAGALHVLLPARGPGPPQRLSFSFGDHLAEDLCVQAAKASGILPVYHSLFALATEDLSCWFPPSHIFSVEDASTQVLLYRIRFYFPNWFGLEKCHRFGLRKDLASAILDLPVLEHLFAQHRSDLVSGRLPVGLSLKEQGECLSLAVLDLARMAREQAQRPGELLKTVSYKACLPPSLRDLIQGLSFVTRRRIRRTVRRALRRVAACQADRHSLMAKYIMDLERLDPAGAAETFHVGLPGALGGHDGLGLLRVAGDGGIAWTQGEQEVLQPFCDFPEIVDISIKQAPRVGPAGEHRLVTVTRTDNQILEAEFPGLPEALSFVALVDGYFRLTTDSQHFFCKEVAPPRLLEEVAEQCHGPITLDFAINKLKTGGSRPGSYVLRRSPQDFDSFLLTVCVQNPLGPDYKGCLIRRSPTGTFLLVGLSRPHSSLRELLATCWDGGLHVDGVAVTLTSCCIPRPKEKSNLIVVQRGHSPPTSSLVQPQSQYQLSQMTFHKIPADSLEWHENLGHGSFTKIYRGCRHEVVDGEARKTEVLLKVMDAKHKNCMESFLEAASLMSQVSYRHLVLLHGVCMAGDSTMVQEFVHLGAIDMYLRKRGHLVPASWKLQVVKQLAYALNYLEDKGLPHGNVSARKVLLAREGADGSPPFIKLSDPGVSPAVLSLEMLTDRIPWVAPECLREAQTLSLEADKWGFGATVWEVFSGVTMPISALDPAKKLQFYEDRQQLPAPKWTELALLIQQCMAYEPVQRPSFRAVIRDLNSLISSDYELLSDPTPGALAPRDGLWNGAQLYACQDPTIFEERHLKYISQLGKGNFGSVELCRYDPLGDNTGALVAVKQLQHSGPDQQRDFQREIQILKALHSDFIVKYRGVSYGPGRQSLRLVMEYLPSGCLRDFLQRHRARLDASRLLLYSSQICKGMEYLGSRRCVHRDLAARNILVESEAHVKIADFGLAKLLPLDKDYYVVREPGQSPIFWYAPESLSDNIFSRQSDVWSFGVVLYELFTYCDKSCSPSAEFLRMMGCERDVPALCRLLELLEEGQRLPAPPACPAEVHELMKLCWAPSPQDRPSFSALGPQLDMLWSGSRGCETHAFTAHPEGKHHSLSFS
The data set is described as follows: Inhibition of JAK3 (unknown origin) by filter assay.

The target of data set [2] is Non-receptor tyrosine-protein kinase TYK2 (Homo sapiens, UniProt P29597). The data set is described as follows: Inhibition of TYK2 (unknown origin) by caliper assay.
The target of data set [3] is Tyrosine-protein kinase JAK1 (Homo sapiens, UniProt P23458). The data set is described as follows: Inhibition of JAK1 (unknown origin) bycaliper assay.
The target in data set [4] is Tyrosine-protein kinase JAK2 (Homo sapiens, UniProt O60674). The data set can be described thus: Inhibition of JAK2 (unknown origin) by caliper assay.
Data set [5] can be described thus: Fraction unbound in human serum. It is filed as ADME, cell-free.

Chain of Tyrosine-protein kinase JAK1 (P23458 whole entry): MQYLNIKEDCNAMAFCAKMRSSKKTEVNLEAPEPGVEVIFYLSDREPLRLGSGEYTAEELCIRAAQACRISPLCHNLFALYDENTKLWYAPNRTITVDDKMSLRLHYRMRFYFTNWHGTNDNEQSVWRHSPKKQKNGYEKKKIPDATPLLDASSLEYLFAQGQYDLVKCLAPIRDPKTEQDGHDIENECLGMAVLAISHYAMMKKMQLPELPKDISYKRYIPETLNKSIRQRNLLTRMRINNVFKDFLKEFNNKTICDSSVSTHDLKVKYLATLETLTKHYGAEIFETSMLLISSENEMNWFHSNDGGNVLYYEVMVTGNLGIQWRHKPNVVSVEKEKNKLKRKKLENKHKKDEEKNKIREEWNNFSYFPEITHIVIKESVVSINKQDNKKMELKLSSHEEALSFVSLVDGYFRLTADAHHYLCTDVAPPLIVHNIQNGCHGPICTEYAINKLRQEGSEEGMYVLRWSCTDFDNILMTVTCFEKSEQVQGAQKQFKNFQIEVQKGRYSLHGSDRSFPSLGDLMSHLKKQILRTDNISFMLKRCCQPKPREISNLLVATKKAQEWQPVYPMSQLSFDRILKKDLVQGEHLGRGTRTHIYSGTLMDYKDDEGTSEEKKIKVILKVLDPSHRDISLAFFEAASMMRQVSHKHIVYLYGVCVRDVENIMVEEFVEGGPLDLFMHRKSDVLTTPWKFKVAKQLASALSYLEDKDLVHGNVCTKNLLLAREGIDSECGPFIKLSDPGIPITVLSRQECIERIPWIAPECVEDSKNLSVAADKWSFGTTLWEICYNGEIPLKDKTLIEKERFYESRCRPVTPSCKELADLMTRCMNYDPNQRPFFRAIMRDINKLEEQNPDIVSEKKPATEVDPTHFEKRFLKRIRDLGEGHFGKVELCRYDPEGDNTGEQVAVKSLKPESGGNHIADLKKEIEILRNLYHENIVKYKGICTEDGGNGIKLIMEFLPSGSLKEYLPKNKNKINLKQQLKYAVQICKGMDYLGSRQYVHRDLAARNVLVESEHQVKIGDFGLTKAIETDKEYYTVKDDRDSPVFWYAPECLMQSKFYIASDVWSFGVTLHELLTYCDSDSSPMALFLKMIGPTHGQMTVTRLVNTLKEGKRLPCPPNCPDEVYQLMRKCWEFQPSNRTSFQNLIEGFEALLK
Chain of Non-receptor tyrosine-protein kinase TYK2 (P29597 whole entry): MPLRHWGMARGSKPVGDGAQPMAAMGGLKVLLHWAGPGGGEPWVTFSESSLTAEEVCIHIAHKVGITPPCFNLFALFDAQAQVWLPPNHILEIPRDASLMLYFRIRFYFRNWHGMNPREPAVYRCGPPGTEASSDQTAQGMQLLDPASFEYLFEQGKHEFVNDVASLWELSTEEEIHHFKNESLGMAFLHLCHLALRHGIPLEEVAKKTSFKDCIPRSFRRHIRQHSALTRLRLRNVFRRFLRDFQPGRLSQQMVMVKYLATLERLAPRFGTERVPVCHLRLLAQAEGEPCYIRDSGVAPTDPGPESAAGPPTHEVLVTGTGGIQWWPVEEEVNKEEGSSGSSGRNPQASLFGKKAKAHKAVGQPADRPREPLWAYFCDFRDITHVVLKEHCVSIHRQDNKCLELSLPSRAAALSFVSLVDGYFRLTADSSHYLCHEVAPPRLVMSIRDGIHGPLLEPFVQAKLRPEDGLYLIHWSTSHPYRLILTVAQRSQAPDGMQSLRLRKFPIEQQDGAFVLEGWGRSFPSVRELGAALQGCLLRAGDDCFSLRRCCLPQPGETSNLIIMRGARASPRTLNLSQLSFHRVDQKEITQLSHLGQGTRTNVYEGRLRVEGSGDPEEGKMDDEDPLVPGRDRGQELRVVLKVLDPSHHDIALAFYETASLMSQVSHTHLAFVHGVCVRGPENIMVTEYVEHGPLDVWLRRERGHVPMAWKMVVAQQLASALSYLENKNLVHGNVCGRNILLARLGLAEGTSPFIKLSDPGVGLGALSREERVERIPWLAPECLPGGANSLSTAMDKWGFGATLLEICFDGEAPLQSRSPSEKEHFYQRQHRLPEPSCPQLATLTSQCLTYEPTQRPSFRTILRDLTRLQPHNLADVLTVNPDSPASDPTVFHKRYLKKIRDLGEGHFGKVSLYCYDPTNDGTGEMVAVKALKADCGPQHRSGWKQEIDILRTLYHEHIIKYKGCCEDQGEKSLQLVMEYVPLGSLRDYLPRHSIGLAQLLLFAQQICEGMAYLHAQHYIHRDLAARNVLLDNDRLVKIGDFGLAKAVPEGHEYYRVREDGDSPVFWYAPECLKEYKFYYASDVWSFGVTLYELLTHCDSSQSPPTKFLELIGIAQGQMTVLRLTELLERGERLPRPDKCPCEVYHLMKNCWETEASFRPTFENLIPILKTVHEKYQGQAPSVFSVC
Chain of Tyrosine-protein kinase JAK2 (O60674 whole entry): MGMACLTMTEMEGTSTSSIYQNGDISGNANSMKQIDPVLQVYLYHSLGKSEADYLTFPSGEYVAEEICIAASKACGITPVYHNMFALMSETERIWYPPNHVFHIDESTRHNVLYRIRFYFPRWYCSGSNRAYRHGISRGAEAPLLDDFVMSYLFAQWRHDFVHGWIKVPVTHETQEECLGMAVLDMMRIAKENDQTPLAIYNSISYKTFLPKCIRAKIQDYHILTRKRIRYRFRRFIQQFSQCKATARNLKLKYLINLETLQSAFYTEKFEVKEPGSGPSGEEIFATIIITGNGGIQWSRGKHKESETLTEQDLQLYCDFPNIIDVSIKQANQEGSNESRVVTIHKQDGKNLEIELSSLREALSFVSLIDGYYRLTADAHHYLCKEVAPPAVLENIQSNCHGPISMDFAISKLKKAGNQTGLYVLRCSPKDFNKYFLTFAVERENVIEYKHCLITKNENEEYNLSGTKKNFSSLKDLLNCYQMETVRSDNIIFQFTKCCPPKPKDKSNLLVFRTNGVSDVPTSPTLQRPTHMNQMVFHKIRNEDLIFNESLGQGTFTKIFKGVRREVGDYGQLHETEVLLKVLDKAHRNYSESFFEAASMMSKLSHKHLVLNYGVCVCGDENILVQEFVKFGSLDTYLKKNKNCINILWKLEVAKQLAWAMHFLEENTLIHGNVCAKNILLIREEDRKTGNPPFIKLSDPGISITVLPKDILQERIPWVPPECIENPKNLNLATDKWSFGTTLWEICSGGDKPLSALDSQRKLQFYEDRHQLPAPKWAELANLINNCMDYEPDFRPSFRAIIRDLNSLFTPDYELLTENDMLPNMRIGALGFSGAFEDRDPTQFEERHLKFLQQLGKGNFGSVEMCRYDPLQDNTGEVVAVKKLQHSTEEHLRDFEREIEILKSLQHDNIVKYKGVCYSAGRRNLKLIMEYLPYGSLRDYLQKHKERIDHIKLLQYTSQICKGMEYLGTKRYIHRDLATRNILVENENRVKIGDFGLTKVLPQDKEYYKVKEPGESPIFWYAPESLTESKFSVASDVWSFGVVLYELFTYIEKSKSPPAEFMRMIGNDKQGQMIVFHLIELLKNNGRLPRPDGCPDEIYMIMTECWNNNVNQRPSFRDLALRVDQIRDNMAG

As to `CC1(C)C[C@](C)(O)C[C@H]1Nc1c(C(N)=O)cnn2cccc12` (racemic), the IC50 in the data set on Blood is 1700 nM; in data set [1] it was 15 nM; in data set [2], 90 nM; in data set [3] it was 50 nM; in data set [4] it was 61 nM.
Consider `CC1(C)[C@H](O)CC[C@H]1Nc1c(C(N)=O)cnn2cccc12` (racemic), for which the IC50 in the data set on Blood is 380 nM; in data set [1], 6 nM; in data set [2], 22 nM; in data set [3], 21 nM; in data set [4], 42 nM. Also, the unbound share (fraction unbound) in data set [5] was 0.17.
Take `NC(=O)c1cnn2cccc2c1NC1CCCC1`: the results for the IC50 in data set [2], in data set [3] and in data set [4] were 150 nM, 170 nM and 250 nM, respectively.
As for `C[C@@]1(O)CCC[C@H]1Nc1c(C(N)=O)cnn2cccc12` (racemic), the IC50 is 5300 nM with Blood, 42 nM in data set [1] and 270 nM in data set [3].
For the molecule `C[C@@]1(F)CCC[C@H]1Nc1c(C(N)=O)cnn2cccc12` (racemic), the IC50 in data set [1] was found to be 43 nM; in data set [2], 110 nM; in data set [3] it was 100 nM; in data set [4], 210 nM.
Regarding `CC1(C)C[C@@](C)(O)C[C@H]1Nc1c(C(N)=O)cnn2cccc12` (racemic), the half-maximal inhibitory concentration (IC50) with Blood turned out to be 3200 nM; in data set [1], 30 nM; in data set [2], 280 nM; in data set [3], 150 nM; in data set [4] it was 350 nM.
Take `C[C@]1(O)CCC[C@H]1Nc1c(C(N)=O)cnn2cccc12` (racemic): the values for the IC50 in data set [1] and in data set [3] were 69 nM and 110 nM, respectively.
`CC1(C)[C@H](N)CC[C@H]1Nc1c(C(N)=O)cnn2cccc12` (racemic): the 50% inhibitory concentration (IC50) in the data set with Blood stood at 250 nM; in data set [1] it was 24 nM; in data set [2], 110 nM; in data set [3], 41 nM; in data set [4] it was 170 nM.
Turning to `CC1(C)[C@@H](O)CC[C@H]1Nc1c(C(N)=O)cnn2cccc12` (racemic), the IC50 in the data set with Blood turned out to be 1200 nM; in data set [1] it was 16 nM; in data set [2] it was 79 nM; in data set [3], 62 nM; in data set [4] it was 130 nM.
As to `C[C@H](Nc1c(C(N)=O)cnn2cccc12)C(C)(C)C`, the half-maximal inhibitory concentration (IC50) in data set [1] amounted to 110 nM; in data set [2], 680 nM; in data set [3] it was 270 nM; in data set [4], 570 nM.
On to `C[C@@]1(F)CCC[C@@H]1Nc1c(C(N)=O)cnn2cccc12`, for which the IC50 in data set [1] turned out to be 47 nM; in data set [2], 400 nM; in data set [3], 190 nM; in data set [4] it was 130 nM.
Take `C[C@]1(CO)CCC[C@H]1Nc1c(C(N)=O)cnn2cccc12` (racemic): the half-inhibitory concentration (IC50) was found to be 1500 nM with Blood; 24 nM in data set [1]; 34 nM in data set [2]; 84 nM in data set [3]; 110 nM in data set [4].
On to `CC1(C)CCC[C@@H]1Nc1c(C(N)=O)cnn2cccc12`, for which the 50% inhibitory concentration (IC50) in data set [1] was found to be 66 nM; in data set [2], 130 nM; in data set [3] it was 56 nM; in data set [4], 130 nM.
`CC1(C)[C@H](Nc2c(C(N)=O)cnn3cccc23)CC[C@]1(C)O` (racemic): the 50% inhibitory concentration (IC50) in the data set on Blood is 5000 nM; in data set [1] it was 28 nM; in data set [2] it was 210 nM; in data set [3], 67 nM; in data set [4], 100 nM.
For the molecule `C[C@]1(C#N)CCC[C@H]1Nc1c(C(N)=O)cnn2cccc12` (racemic), the IC50 in the data set on Blood is 250 nM; in data set [1], 10 nM; in data set [2] it was 6 nM; in data set [3] it was 15 nM. This molecule also came in with a fraction unbound in data set [5] of 0.27.
With `C[C@@]1(CO)CCC[C@H]1Nc1c(C(N)=O)cnn2cccc12` (racemic), the IC50 in data set [1] was found to be 140 nM; in data set [2], 390 nM; in data set [3], 250 nM; in data set [4], 380 nM.
With `C[C@@]1(C#N)CCC[C@H]1Nc1c(C(N)=O)cnn2cccc12` (racemic), the half-maximal inhibitory concentration (IC50) was 67 nM in data set [1], 30 nM in data set [2] and 61 nM in data set [3].
